The test system of this test is tyrosinase de champignon. Nature of the test: Tyrosinase inhibition (kinetics of dopaquinone formation at 480 nm, substrates L-tyrosine + L-dopa). Type of test: biochemical.

No end group written: not given here.

For “KCTCCA (cysteine pairing not given here) [hexapeptide, commercialement disponible chez Sigma, France]”, the “pourcentage d'inhibition de la tyrosinase” value is, setting by setting: (peptide 5.10^-3 M, series T0 (substrates added at time T0)) 98%; (peptide 5.10^-4 M, series T 15 min (substrates added 15 min after mixing peptide and tyrosinase)) 98%. In addition, the “effet d'inhibition de la tyrosinase” value (peptide 5.10^-6 M, result in words) is given as “déjà très significative”.

The values above are taken from patent EP0703776B1, “UTILIZATION OF A PEPTIDE HAVING A LYSIN GROUP AND AN ALANINE GROUP IN THE TERMINAL POSITION FOR THE PREPARATION OF A DEPIGMENTING COMPOSITION, AND DEPIGMENTING COMPOSITION THUS OBTAINED” (PARFUMS CHRISTIAN DIOR, priority 1993, dated 1997).
